Earlier results in patent EP0214616A2, “Acetylenic prostaglandins” (G.D. Searle & Co., priority 1985, dated 1987).

Tested on: gastric secretion
Conditions: at the highest dose tested (100ug/kg)

SMILES: CCCCC(C)(O)C/C=C/[C@H]1[C@H](O)CC(=O)[C@@H]1CCC#CCCC(=O)OC (mixture of isomers) [Example C90001]
- gastric antisecretory activity: devoid of gastric antisecretory activity
